Data taken from patent US9242996B2 (Novartis AG, priority 2013, dated 2016).

Target: activated ERK2 (Homo sapiens (Human), UniProt P28482)
Test: Activated ERK2 kinase assay, ERK2 New conditions (AlphaScreen, ERKtide phosphorylation)
Format: biochemical
Conditions: 0.25 nM ERK2, 200 nM ERKtide peptide, 35 μM ATP, 30 min preincubation
Procedure: The assay is carried out in 50 mM HEPES [pH 7.5], 5 mM MgCl2, 1 mM DTT, 0.01% Tween-20, 0.05% BSA using 0.25 nM ERK2, 200 nM ERKtide peptide and 35 μM ATP (all concentrations are final in the reaction) in a total volume of 10.25 μL. […] Compound dilution series are prepared in 100% DMSO. ERK2 is preincubated with compounds for 30 minutes at ambient temperature. Reaction is initiated by addition of a substrate cocktail of ERKtide peptide and ATP and is allowed to proceed for 2-3 hours at ambient temperature. Reaction is terminated by addition of 10 μL of a 2× stop buffer consisting of 100 mM Tris-Cl [pH 7.5], 25 mM EDTA, 0.01% Tween 20, 10 μg/mL of AlphaScreen Protein A Acceptor Beads, 10 μg/mL of Streptavidin Donor Beads (PerkinElmer, Waltham, Mass.), and 1.4 μg/mL phospho-EGF Receptor (Thr669) antibody (Cat #3056, Cell Signaling Technology, Danvers, Mass.). Terminated reactions are read, after overnight incubation in the dark, on an EnVision Multilabel Plate Reader (PerkinElmer, Waltham, Mass.), with excitation and emission wavelengths set to 680 nm and 570 nm, respectively. IC50 values are determined using a four-parameter fit.

Sequence of activated ERK2 (P28482 whole entry): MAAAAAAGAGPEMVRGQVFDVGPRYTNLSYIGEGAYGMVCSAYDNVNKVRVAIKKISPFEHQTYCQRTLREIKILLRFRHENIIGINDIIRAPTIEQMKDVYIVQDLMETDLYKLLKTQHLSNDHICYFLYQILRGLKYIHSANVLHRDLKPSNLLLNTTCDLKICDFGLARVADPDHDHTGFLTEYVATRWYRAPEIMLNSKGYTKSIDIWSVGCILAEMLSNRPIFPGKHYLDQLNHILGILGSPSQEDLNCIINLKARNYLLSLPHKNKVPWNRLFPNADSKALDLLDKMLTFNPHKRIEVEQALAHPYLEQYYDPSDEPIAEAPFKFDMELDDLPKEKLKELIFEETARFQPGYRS

Row | Structure (SMILES) | IC50 [nM]
1 | Nc1ncc(C2CCS(=O)(=O)C2)cc1-c1ccc(C(=O)NCc2ccccc2)c(F)c1 (racemic) [Example 4, 4-(2-amino-5-(1,1-dioxidotetrahydrothiophen-3-yl)pyridin-3-yl)-N-benzyl-2-fluorobenzamide] | 315
2 | CS(=O)(=O)[C@@H]1CCC[C@@H](c2cnc(N)c(-c3ccc(C(=O)NCc4ccccc4)c(F)c3)n2)C1 (racemic) [Example 13, (+/−)-4-(3-amino-6-((1R,3R)-3-(methylsulfonyl)cyclohexyl)pyrazin-2-yl)-N-benzyl-2-fluorobenzamide] | 361
3 | CC(CO)c1cnc(N)c(-c2ccc(C(=O)NCc3ccccc3)c(F)c2)n1 (racemic) [Example 115, (+/−)-4-(3-amino-6-(1-hydroxypropan-2-yl)pyrazin-2-yl)-N-benzyl-2-fluorobenzamide] | 274
4 | CO[C@@H]1CCC[C@H](c2cnc(N)c(-c3ccc(C(=O)NCc4ccccc4)c(F)c3)n2)C1 (racemic) [Example 124, (+/−)-cis-4-(3-amino-6-(3-methoxycyclohexyl)pyrazin-2-yl)-N-benzyl-2-fluorobenzamide] | 62.6
5 | Nc1ncc([C@@H]2CCS(=O)(=O)C2)cc1-c1ccc(C(=O)NCc2ccccc2)c(F)c1 (single isomer, unassigned) [Example 5] | 278
6 | Nc1ncc([C@H]2CCS(=O)(=O)C2)cc1-c1ccc(C(=O)NCc2ccccc2)c(F)c1 (single isomer, unassigned) [Example 6] | 354
7 | CN(Cc1ncccn1)C(=O)c1ccc(-c2cc(C3CCOCC3)cnc2N)cc1F [Example 3, 4-(2-amino-5-(tetrahydro-2H-pyran-4-yl)pyridin-3-yl)-2-fluoro-N-methyl-N-(pyrimidin-2-ylmethyl)benzamide] | 12300

Stronger by IC50, values ahead:

Row | IC50 [nM] | Structure (SMILES)
8 | 0.549 | C[C@@H](NC(=O)c1ccc(-c2cc(C3CCC(=O)NC3)cnc2N)cc1F)c1cccc(Cl)c1 (mixture of isomers) [Example 119, 4-(2-amino-5-(6-oxopiperidin-3-yl)pyridin-3-yl)-N-((R)-1-(3-chlorophenyl)ethyl)-2-fluorobenzamide]
9 | 0.593 | COC1CCCC(c2cnc(N)c(-c3ccc(C(=O)N[C@H](CO)c4cccc(Cl)c4)c(F)c3)n2)C1 (mixture of isomers) [Example 123, cis-4-(3-amino-6-(3-methoxycyclohexyl)pyrazin-2-yl)-N-((S)-1-(3-chlorophenyl)-2-hydroxyethyl)-2-fluorobenzamide]
10 | 39.6 | Nc1ncc([C@H]2CCC[C@@H](O)C2)nc1-c1ccc(C(=O)NCc2ccccc2)c(F)c1 (racemic) [Example 12, (+/−)-4-(3-amino-6-((1S,3R)-3-hydroxycyclohexyl)pyrazin-2-yl)-N-benzyl-2-fluorobenzamide]
11 | 8.39 | Nc1ncc(C2CCOCC2)nc1-c1ccc(C(=O)NC(c2ccccc2)C(F)F)c(F)c1 (racemic) [Example 50, (+/−)-4-(3-amino-6-(tetrahydro-2H-pyran-4-yl)pyrazin-2-yl)-N-(2,2-difluoro-1-phenylethyl)-2-fluorobenzamide]
12 | 27 | Nc1ncc(C2CCOCC2)nc1-c1ccc(C(=O)NC(c2ccccc2)C(F)(F)F)c(F)c1 (racemic) [Example 51, (+/−)-4-(3-amino-6-(tetrahydro-2H-pyran-4-yl)pyrazin-2-yl)-2-fluoro-N-(2,2,2-trifluoro-1-phenylethyl)benzamide]
13 | 4.79 | Nc1ncc(C2CCC(=O)NC2)nc1-c1ccc(C(=O)NCc2ccccc2)c(F)c1 (racemic) [Example 117, (+/−)-4-(3-amino-6-(6-oxopiperidin-3-yl)pyrazin-2-yl)-N-benzyl-2-fluorobenzamide]
14 | 17.6 | Nc1ncc(C2CCC(=O)NC2)cc1-c1ccc(C(=O)NCc2ccccc2)c(F)c1 (racemic) [Example 118, (+/−)-4-(2-amino-5-(6-oxopiperidin-3-yl)pyridin-3-yl)-N-benzyl-2-fluorobenzamide]
